# pIC50: −log10 of the molar value.
# Legend:
# [1] = target: ALS enzyme extracted from Mutant 1 (heterozygous); assay: ALS enzyme assay, heterozygous Mutant 1; format: biochemical, Zea mays; conditions: for pIC50: ALS of heterozygous Mutant 1, read-out: ID50% (the source's name); for resistance group, Enzyme Assay: Mutant 1, groups Strong, Intermediate, Weak, Zero; for Fold Increase: fold increase in resistance vs wild type, heterozygous Mutant 1, 30 min
# Method: (§1) Seeds of generation M₁BC₁ M₁BC₂ of the nine mutants were sprayed pre-emergence with the herbicide imazethapyr (PURSUIT) (Trade Mark) at a rate of 250 g/ha and grown in a growth chamber (16 hour day, 27°C; 8 hour night, 17°C). Plants were harvested after 11 days.
# (§2) Four grams of leaf material were harvested from just above the first leaf axis and ground in a mortar and pestle in 20ml of a solution containing 40mM Tricine (Trade Mark), 10mM EDTA, 5mM pyruvate, 80 »M flavin adenine dinucleotide (FAD), 1mM dithiothreitol (DTT), pH 8, plus 0.8g Polyclar AT. The homogenate was pressed through four layers of muslin and centrifuged at 30,000g for 20 minutes.
# (§3) The supernatant was brought to 65% saturation with ammonium sulphate, left to precipitate for 30 minutes and then centrifuged at 30.000g for 20 minutes. The pellet was resuspended in 2.5ml of 40mM Tricine, 10mM EDTA, 5mM pyruvate, 80»M FAD, 25% (v/v) glycerol, 1mM DTT, pH 8, and desalted into 3.5ml of 40mM Tricine, 10mM EDTA, 25% (v/v) glycerol, 1mM DTT, pH 8.
# (§4) One hundred microlitres of the enzyme extract was used for each assay. Final reagent concentrations were: 120mM Tricine, 50mM pyruvate, 10mM MgCl₂, […], 93»M thiamine pyrophosphate (TPP), pH 8, in the presence or absence of a herbicide of interest, in a volume of 750 »l. Incubations were carried out at 37°C for 30 minutes. Reactions were stopped with 250»l of 1.84M sulphuric acid, and decarboxylation of the acetolactate carried out at 37°C for 75 minutes, or at 60°C for 30 minutes. Assay blanks had sulphuric acid added prior to the enzyme extract. To the samples and blanks 650»l of α-naphthol in 2.73M NaOH/0.16%(w/v) creatine were added followed by incubation at 37°C for 30 minutes. After centrifugation at 30,000g the optical density of the supernatant was read at 540nm.
# (§5) The assay procedure described was carried out on ALS enzyme extracted from each of the nine mutants for the following herbicides: imazethapyr (PURSUIT) imazapyr (ARSENAL) imazaquin (SCEPTER) chlorsulfuron (GLEAN) chlorimuron (CLASSIC) […] (HARMONY) The enzyme activity graphs are given as Figures 3 to 8. In addition, homozygous lines of mutants 1 and 2 which were selected from generation M₁BC₁S₂, were also tested against the same group of herbicides and against representatives of the triazolopyrimidines and phenoxypyrimidines. The chemical structures of these herbicides are shown in Figure 2 of the accompanying drawings.
# (§6) From the enzyme assay data it is possible to derive, as a measure of the degree of inhibition the factor ID50% for each mutant and for each herbicide. This factor is indicative of the herbicide concentration which gives 50% inhibition of the ALS activity in comparison with the wild-type control. It is also possible to derive the fold increase in resistance.
# [2] = target: ALS enzyme extracted from Mutant 6 (heterozygous); assay: ALS enzyme assay, heterozygous Mutant 6; format: biochemical, Zea mays; conditions: for pIC50: ALS of heterozygous Mutant 6, read-out: ID50% (the source's name); for resistance group, Enzyme Assay: Mutant 6, groups Strong, Intermediate, Weak, Zero; for Fold Increase: fold increase in resistance vs wild type, heterozygous Mutant 6, 30 min
# Method: as §1, §2, §3, §4, §5, §6
# Mutant 10 plants = assay: Cross-resistance testing (glasshouse dose response), Mutant 10; format: in vivo, Zea mays; conditions: pre-emergence spray, assessed after four weeks growth
# From the text: (§7) The seeds used in this screen were populations of mixed tolerant and sensitive seed, segregating 1:1, derived from each of the heterogygous, tolerant mutants crossed with homozygous, sensitive UE95. All of the tolerant progeny are heterozygous for tolerance. Each of the mutants identified above were used except mutant 4. The controls were seed of self-pollinated UE95 which was pollinated in the same year as the tolerant lines.
# (§8) One litre of compost was placed in each seed tray of dimensions 19cm x 11cm x 5cm deep and firmed down flat. Two furrows 1 cm deep were drawn in the surface of the compost in each tray and six seeds were sown in each furrow (total twelve seeds per tray). Some trays were sown with 24 seeds, in which case three furrows were made and 8 seeds sown per furrow.
# (§9) In each test each tray contained either the seed of one mutant or of the UE95 control for each herbicide application rate and for the untreated control.
# (§10) Five different types of ALS-inhibitor herbicides were tested on the mutants plus imazethapyr (PURSUIT) as a comparison. Four rates of each were applied; approximately 0.1x, 0.5x, 1x and 4x the estimated field rates for each herbicide. The rates are the same for mutant 3 to 10 but higher rates for chlorimuron (CLASSIC) and lower rates for chlorsulfuron (GLEAN) were applied to mutants 1 and 2.
# (§11) The rates of application used in the screening tests were as follows: chlorimuron (CLASSIC) 4,20,40,160 g/Ha (mutants 1 and 2); and, 8,40,80,320 g/Ha (mutants 3 to 10); chlorsulfuron (GLEAN) 5,25,50,200 g/Ha (mutants 1 and 2); and, 1,5,10,40 g/Ha (mutants 3 to 10); imazaquin (SCEPTER) 30,150,300,1200 g/Ha; triazolopyrimidine 5,25,50,200 g/Ha; phenoxypyrimidine 10,50,100,400 g/Ha; and, imazethapyr (PURSUIT) 30,150,300,1200 g/Ha The triazolopyrimidine and phenoxypyrimidine were formulated in an adjuvant wetting agent known as JF5969 and diluted with water to make a final concentration of 10% JF5969. The remaining compounds were diluted with water only.
# (§12) The spray jet and parameters were as decribed above under "SCREENING". After spraying, the seeds were covered with 0.5 litre of compost and firmed down flat (2.5cm covering) and grown under the conditions described under "SCREENING" above.
# (§13) Visual assessments were made of the plants after four weeks growth. Each plant was scored on a scale of zero to 5 and the height measured from soil surface to the tallest leaf tip. The scoring scale was as follows: 0 - 0 to 10% damage (little or no herbicidal effect) 1 - 11 to 25% damage 2 - 26 to 50% damage 3 - 51 to […] 4 - 81 to 95% damage 5 - 96 to 100% damage (complete death of the plant) In carrying out these assessments, plants which were obviously of the sensitive phenotype were ignored (approximately 50% of the plants). […]
# [3] = target: ALS enzyme extracted from Mutant 10 (heterozygous); assay: ALS enzyme assay, heterozygous Mutant 10; format: biochemical, Zea mays; conditions: for pIC50: ALS of heterozygous Mutant 10, read-out: ID50% (the source's name); for resistance group, Enzyme Assay: Mutant 10, groups Strong, Intermediate, Weak, Zero; for Fold Increase: fold increase in resistance vs wild type, heterozygous Mutant 10, 30 min
# Method: as §1, §2, §3, §4, §5, §6
# [4] = target: ALS extracted from leaves of MUTANT 1 (homozygous); assay: ALS enzyme assay, homozygous Mutant 1; format: biochemical, Zea mays; conditions: for pIC50: ALS of homozygous Mutant 1, read-out: ID50% Mutant; for Fold Increase: fold increase in resistance vs wild type, homozygous Mutant 1, 30 min
# Method: as §2, §3, §4, §5, §6
# Mutant 6 plants = assay: Cross-resistance testing (glasshouse dose response), Mutant 6; format: in vivo, Zea mays; conditions: pre-emergence spray, assessed after four weeks growth
# From the text: as §7, §8, §9, §10, §11, §12, §13
# Mutant 3 plants = assay: Cross-resistance testing (glasshouse dose response), Mutant 3; format: in vivo, Zea mays; conditions: pre-emergence spray, assessed after four weeks growth
# From the text: as §7, §8, §9, §10, §11, §12, §13
SMILES,pIC50 [1],"resistance group, Enzyme Assay [1]",Fold Increase [1],pIC50 [2],"resistance group, Enzyme Assay [2]",Fold Increase [2],"resistance group, Dose Response (Mutant 10 plants)",pIC50 [3],"resistance group, Enzyme Assay [3]",Fold Increase [3],pIC50 [4],Fold Increase [4],"resistance group, Dose Response (Mutant 6 plants)","resistance group, Dose Response (Mutant 3 plants)"
"COc1cc(Cl)nc(NC(=O)NS(=O)(=O)c2ccccc2C(=O)O)n1 [Chlorimuron, chlorimuron]",8.30,Weak,1,7.82,Weak,4,Weak,7.77,Intermediate,5,8.00,2.7,Zero,Weak
"COc1nc(C)nc(NC(=O)NS(=O)(=O)c2ccccc2Cl)n1 [Chlorsulfuron, chlorsulfuron]",7.19,Weak,4,7.19,Weak,4,Weak and Zero,7.46,Weak,2,7.22,3.2,Zero,Intermediate
"CC(C)C1(C)N=C(c2nc3ccccc3cc2C(=O)O)NC1=O (centres unmarked) [Imazaquin, imazaquin]",3.82,Strong,250,5.82,Weak,2,Weak,5.15,Weak,12,3.76,292,Weak,Weak
"CCc1cnc(C2=NC(=O)C(C)(C(C)C)N2)c(C(=O)O)c1 (centres unmarked) [Imazethapyr, 5-ethyl-2-(5-iso-propyl-5-methyl-4-oxo-2-imidazolin-2-yl) nicotinic acid]",< 3.00,Strong,>660,4.22,Weak,40,Intermediate,4.82,Intermediate,10,3.12,500,Intermediate,Weak

# Source: patent EP0472573B1, “HERBICIDE RESISTANT MAIZE” (ZENECA LIMITED, priority 1989, dated 1990)
